Experimental data taken from article PMC5117131 (ACS chemical biology, 2016).
“Also recorded” adds a separate entry of the source. Where no end group is shown, it is not given here. TMR = tetramethylrhodamine dye

B1: E7 protein: full length HPV E7 protein (protein)
chain: MHGDTPTLHEYMLDLQPETTDLYCYEQLNDSSEEEDEIDGPAGQAEPDRAHYNIVTFCCKCDSTLRLCVQSTHVDIRTLEDLLMGTLGIVCPICSQKP
B2: phosphorylated Rb^NP (residues 55-787, Δ245-267, Δ582-642, phosphorylated by Cdk2-CycA) (domain or fragment, UniProt P06400 55-787, looked up)
chain: PDFTALCQKLKIPDHVRERAWLTWEKVSSVDGVLGGYIQKKKELWGICIFIAAVDLDEMSFTFTELQKNIEISVHKFFNLLKEIDTSTKVDNAMSRLLKKYDVLFALFSKLERTCELIYLTQPSSSISTEINSALVLKVSWITFLLAKGEVLQMEDDLVISFQLMLCVLDYFIKLSPPMLLKEPYKTAVIENDTRIIEVLCKEHECNIDEVKNVYFKNFIPFMNSLGLVTSNGLPEVENLSKRYEEIYLKNKDLDARLFLDHDKTLQTDSIDSFETQRTPRKSNLDEEVNVIPPHTPVRTVMNTIQQLMMILNSASDQPSENLISYFNNCTVNPKESILKRVKDIGYIFKEKFAKAVGQGCVEIGSQRYKLGVRLYYRVMESMLKSEEERLSIQNFSKLLNDNIFHMSLLACALEVVMATYSRSTSQNLDSGTDLSFPWILNVLNLKAFDFYKVIESFIKAEGNLTREMIKHLERCEHRIMESLAWLSDSPLFDLIKQSKDREGKSTSLSLFYKKVYRLAYLRLNTLCERLLSEHPELEHIIWTLFQHTLQNEYELMRDRHLDQIMMCSMYGICKVKNIDLKFKIIVTAYKDLPHAVQETFKRVLIKEEEYDSIIVFYNSVFMQRLKTNILQYASTRPPTLSPIPHIPR
modifications: quantitative phosphorylation on two sites (the construct contains the two sites T356 and T373)
B3: unphosphorylated Rb^NP (Rb N-terminal domain and pocket domain, residues 55-787, Δ245-267, Δ582-642) (domain or fragment, UniProt P06400 55-787, looked up)
chain: B2 chain

Experiments:
[1] = biological target: phosphorylated Rb^NP–E2F^TMR (Homo sapiens, UniProt P06400, DEL245-267/DEL582-642); experiment: FP EC50 measurement of Rb activation; type: biochemical; details: 20 nM phosphorylated Rb^NP, 10 nM E2F^TMR, Figure 3b
[2] = tested on: Rb; details: LxCxE-like peptides; cited from earlier work
[3] = biological target: E2F2 transactivation domain peptide (E2FTMR) 409-428 (UniProt Q14209); experiment: fluorescence polarization, single concentration, 384-well; details: reference: unphosphorylated RbNP; sites T356,T373
[4] = tested on: Rb Q736A/K740A docking interface mutant; experiment: E2F^TD binding to Rb with mutated docking interface; type: biochemical; details: Supporting Information Figure 3
[5] = biological target: T1, TMR-E2F2^TD peptide (human); experiment: fluorescence polarisation
T1 chain: {TMR}-QDDYLWGLEAGEGISDLFD

Molecule	effect in the Rb activation assay (in words) [1]	affinity for Rb (in words) [2]	FP ratio [5] [FP ratio]	other results
MEHQLLCCEVETIRRAY [cyclin D]	do not show activity; also recorded: no effect	weak affinity	–	–
TDLEASLLSFEKLDRAphosSPDLWPE [LIN52]	do not show activity; also recorded: no effect	weak affinity	–	–
Rb (retinoblastoma protein; RbNP construct) 55-787 (from UniProt P06400) Cdk2–CycA phosphorylated RbNP	–	–	–	other: FP ratio [3]: weaker; reference ~165
B1	–	–	–	effect on E2F^TD binding to Rb with mutated docking interface [4]: do not affect E2F^TD binding to Rb
B2	–	–	~60	–
B3	–	–	~165	–
